Data reported in ChEMBL document CHEMBL1201862, “PubChem BioAssay data set” (2004).
Calls of active or inactive are those of the source. Cut-off read from the data, not from the text of the source: actives have a measured IC50 and inactives only a lower limit.

Target: Envelope glycoprotein gp160 (Human immunodeficiency virus 1, UniProt Q6QLK5)
Assay: cell-free HIV fusion peptide-binding blockers – biochemical, uHTS, fluorescence dequenching, […] (AID 1986)

Sequence of Envelope glycoprotein gp160 (Q6QLK5 whole entry, the tested form may be a part): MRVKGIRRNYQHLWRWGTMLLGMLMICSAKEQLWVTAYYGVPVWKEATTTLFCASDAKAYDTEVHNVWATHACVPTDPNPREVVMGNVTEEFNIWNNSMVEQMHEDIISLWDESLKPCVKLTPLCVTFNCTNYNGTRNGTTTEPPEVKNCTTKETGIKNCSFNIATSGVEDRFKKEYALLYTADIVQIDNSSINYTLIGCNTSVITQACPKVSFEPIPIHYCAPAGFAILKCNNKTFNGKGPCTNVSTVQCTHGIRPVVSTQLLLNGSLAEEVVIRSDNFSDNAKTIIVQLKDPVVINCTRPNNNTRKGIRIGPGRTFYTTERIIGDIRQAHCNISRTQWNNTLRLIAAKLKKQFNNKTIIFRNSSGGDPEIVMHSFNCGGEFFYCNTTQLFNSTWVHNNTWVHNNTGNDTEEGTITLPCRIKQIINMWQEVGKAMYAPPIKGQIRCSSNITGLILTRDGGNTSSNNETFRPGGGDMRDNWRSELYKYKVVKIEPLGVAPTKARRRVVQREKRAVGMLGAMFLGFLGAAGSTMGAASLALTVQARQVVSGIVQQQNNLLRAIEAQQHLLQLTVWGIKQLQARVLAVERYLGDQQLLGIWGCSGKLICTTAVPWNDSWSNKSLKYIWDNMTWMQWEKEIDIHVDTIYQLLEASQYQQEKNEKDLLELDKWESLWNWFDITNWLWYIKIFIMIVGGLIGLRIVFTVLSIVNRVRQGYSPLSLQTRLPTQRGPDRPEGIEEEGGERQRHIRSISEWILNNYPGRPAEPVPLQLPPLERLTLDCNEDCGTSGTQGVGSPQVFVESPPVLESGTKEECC

**Q.** CCCCCCCCCCCCCCCC[n+]1ccn(CC(C)=O)c1 was tested. Which IC50 did it give?
**A.** 14.4 µM (active)

**Q.** For Cc1ccccc1NC1=NC(=O)/C(=C/c2cccn2-c2cccc(C(=O)O)c2)S1, which IC50 is on record?
**A.** 11.3 µM (active)

**Q.** For O=C(Nc1ccc(-c2nc3ccccc3[nH]2)cc1)c1ccccc1NS(=O)(=O)c1ccc(F)cc1, which IC50 is on record?
**A.** 24.6 µM (active)
